Experimental data taken from US20260364030A1, “NOVEL SELECTIVE INHIBITORS OF LYSYL OXIDASES” (Syntara Limited, priority 2022, published 2026).

Tests used:
[1] = tested on: massive, pedunculated keloids; details: BAPN or penicillamine, and colchicine; following excision of keloid and grafting; cited from earlier work
[2] = tested on: lysyl oxidase; details: various models (e.g. CCl4, bleomycin, quartz, cancer) and tissues (e.g. liver, lung and dermis); cited from earlier work
[3] = molecular target: T1, Human MAO-A (Homo sapiens, UniProt P21397); experiment: Inhibition of human recombinant MAO-A; assay type: biochemical; details: 2 hours incubation; substrate tyramine 200 μM
T1 construct: purchased Sigma Aldrich
T1 sequence (P21397 whole entry): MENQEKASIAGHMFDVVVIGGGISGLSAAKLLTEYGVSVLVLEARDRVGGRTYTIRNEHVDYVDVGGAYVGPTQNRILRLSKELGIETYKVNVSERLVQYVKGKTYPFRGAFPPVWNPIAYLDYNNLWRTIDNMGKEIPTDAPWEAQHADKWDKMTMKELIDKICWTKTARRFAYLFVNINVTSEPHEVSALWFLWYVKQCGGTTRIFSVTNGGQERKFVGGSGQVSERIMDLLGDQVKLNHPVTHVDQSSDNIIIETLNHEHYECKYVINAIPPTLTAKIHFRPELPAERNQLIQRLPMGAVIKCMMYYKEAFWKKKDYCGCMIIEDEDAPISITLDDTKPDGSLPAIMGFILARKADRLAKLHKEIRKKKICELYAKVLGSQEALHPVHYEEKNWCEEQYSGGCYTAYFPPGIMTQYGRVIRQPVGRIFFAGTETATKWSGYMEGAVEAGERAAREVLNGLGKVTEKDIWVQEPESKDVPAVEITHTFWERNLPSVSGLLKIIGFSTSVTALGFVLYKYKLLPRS

[4] = tested on: SSAO/VAP-1, MAO-B, MAO-A and DAO; experiment: Selectivity with respect to other amine oxidases; assay type: biochemical, human
Experimental: Human recombinant SSAO/VAP-1 amine oxidase activity was determined using the coupled colorimetric method as described for monoamine oxidase, copper-containing amine oxidases and related enzymes [Holt A. and Palcic M., 2006]. Briefly, a cloned cDNA template corresponding to residues 34-763 of human SSAO/VAP-1, and incorporating a mouse Ig kappa (κ) signal sequence, N-terminal flag epitope tag and tobacco etch virus (TEV) cleavage site, was assembled in a mammalian expression vector (pLO-CMV) by Geneart AG. This vector containing human SSAO/VAP-1 residues was transfected into CHO-K1 glycosylation mutant cell line, Lee 8. A clone stably expressing human SSAO/VAP-1 was isolated and cultured in large scale. Active human SSAO/VAP-1 was purified and recovered using immunoaffinity chromatography. This was used as the source for SSAO/VAP-1 activity. A high-throughput fluorescent assay was developed using either 96 or 384 well format. Briefly, in a standard 384 well plate assay 25 μL of purified human SSAO/VAP-1 (0.25 μg/mL) in 0.1 M sodium phophate buffer (pH 7.4) was added into each well. […] The fluorescence unit (RFU) was read every 2.5 min for 30 min at 37 °C excitation 544 nm and emission 590 (Optima; BMG labtech). The slope/min of the kinetics for each well was calculated using MARS data analysis software (BMG labtech) and this value was used to deduce the IC50 value (Dotmatics). […]

IC50 [3] [µM]	SMILES	Effect on surface scarring [1]	Reduction of collagen content [2]	Selectivity for LOX family with respect to SSAO/VAP-1, MAO-B, MAO-A and DAO [4]
–	N#CCCN [BAPN, β-aminopropionitrile, reference compound]	measurable beneficial effect on surface scarring	efficacious in reducing collagen content	–
> 100	NC/C(=C\F)CS(=O)(=O)c1ccccc1 [Compound 1, (E)-3-fluoro-2-((phenylsulfonyl)methyl)prop-2-en-1-amine]	–	–	selectively inhibit members of the LOX family of enzymes
